{"source": "patent US20230085307A1", "about": "“PYRIDAZINONE COMPOUND AND HERBICIDE” (NISSAN CHEMICAL CORPORATION, priority 2019, published 2023)", "key": {"[1]": {"test_system": "Italian ryegrass", "assay": "Test Example 4: herbicidal effect by soil treatment (Table 19, symbol K)", "format": "in vivo, Italian ryegrass (Lolium multiflorum)", "settings": "amount of applied herbicide 320 g/ha", "procedure,_shortened": "(§1)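 Pre-emergence style soil spray: seeds under ~1.5 cm sterilized diluvial soil received a uniform coat of emulsion diluted to the predetermined herbicide amount. Greenhouse 25–30° C; readout at week three on previously defined criteria.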"}, "[2]": {"test_system": "barnyard grass", "assay": "Test Example 3: herbicidal effect by foliage application, Wagner pot (Table 18, symbol H)", "format": "in vivo, barnyard grass (Echinochloa crus-galli)", "settings": "320 g/ha", "procedure,_shortened": "(§2)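 Plants were sown in alluvial soil held under 0.1–0.5 cm standing water and grown 14 days in a greenhouse at 25–30 °C. An emulsifiable formulation, water-diluted to the set dose, was then sprayed onto the foliage, and effects were scored three weeks later using previously defined criteria.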"}, "[3]": {"test_system": "chickweed", "assay": "Test Example 5: herbicidal effect by foliage application, plastic box (Table 20, symbol P)", "format": "in vivo, common chickweed (Stellaria media)", "settings": "amount of applied herbicide 320 g/ha; foliage application after 14-day growth; evaluated three weeks after application", "procedure,_shortened": "(§3)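 Plants were sown into sterilized diluvial soil under about 1.5 cm cover and kept in a greenhouse at 25° C. to 30° C. Fourteen days on, foliage received an even spray of the diluted emulsion. Herbicidal or crop effect was judged three weeks afterwards.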"}, "[4]": {"test_system": "lambsquarters", "assay": "Test Example 4: herbicidal effect by soil treatment (Table 19, symbol O)", "format": "in vivo, lambsquarters (Chenopodium album)", "settings": "amount of applied herbicide 320 g/ha", "procedure,_shortened": "as §1"}, "[5]": {"test_system": "blackgrass", "assay": "Test Example 5: herbicidal effect by foliage application, plastic box (Table 20, symbol J)", "format": "in vivo, blackgrass (Alopecurus myosuroides)", "settings": "amount of applied herbicide 320 g/ha; foliage application after 14-day growth; evaluated three weeks after application", "procedure,_shortened": "as §3"}, "[6]": {"test_system": "southern crabgrass", "assay": "Test Example 5: herbicidal effect by foliage application, plastic box (Table 20, symbol F)", "format": "in vivo, southern crabgrass (Digitaria ciliaris)", "settings": "amount of applied herbicide 320 g/ha; foliage application after 14-day growth; evaluated three weeks after application", "procedure,_shortened": "as §3"}, "[7]": {"test_system": "chickweed", "assay": "Test Example 4: herbicidal effect by soil treatment (Table 19, symbol P)", "format": "in vivo, common chickweed (Stellaria media)", "settings": "amount of applied herbicide 320 g/ha", "procedure,_shortened": "as §1"}, "[8]": {"test_system": "Japanese bulrush", "assay": "Test Example 1: herbicidal activity, application before weed generation under submerged conditions (Table 16, symbol B)", "format": "in vivo, Japanese bulrush (Schoenoplectus juncoides)", "settings": "amount of applied herbicide 320 g/ha", "procedure,_shortened": "(§4)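 Alluvial soil was flooded to 4 cm depth, weed seeds were sown mixed and 2.5-leaf rice seedlings were transplanted. On sowing day, the compound's emulsion, diluted in water to a set dose, was applied to the water surface. Plants grew at 25–30 °C and were scored 0–5 after three weeks.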"}, "[9]": {"test_system": "green foxtail", "assay": "Test Example 4: herbicidal effect by soil treatment (Table 19, symbol G)", "format": "in vivo, green foxtail (Setaria viridis)", "settings": "amount of applied herbicide 320 g/ha", "procedure,_shortened": "as §1"}, "[10]": {"test_system": "redroot pigweed", "assay": "Test Example 5: herbicidal effect by foliage application, plastic box (Table 20, symbol N)", "format": "in vivo, redroot pigweed (Amaranthus retroflexus)", "settings": "amount of applied herbicide 320 g/ha; foliage application after 14-day growth; evaluated three weeks after application", "procedure,_shortened": "as §3"}, "[11]": {"test_system": "rice flat sedge", "assay": "Test Example 3: herbicidal effect by foliage application, Wagner pot (Table 18, symbol E)", "format": "in vivo, rice flat sedge (Cyperus iria)", "settings": "320 g/ha", "procedure,_shortened": "as §2"}, "[12]": {"test_system": "windgrass", "assay": "Test Example 4: herbicidal effect by soil treatment (Table 19, symbol L)", "format": "in vivo, windgrass (Apera spica-venti)", "settings": "amount of applied herbicide 320 g/ha", "procedure,_shortened": "as §1"}, "[13]": {"test_system": "lambsquarters", "assay": "Test Example 5: herbicidal effect by foliage application, plastic box (Table 20, symbol O)", "format": "in vivo, lambsquarters (Chenopodium album)", "settings": "amount of applied herbicide 320 g/ha; foliage application after 14-day growth; evaluated three weeks after application", "procedure,_shortened": "as §3"}, "[14]": {"test_system": "barnyard grass", "assay": "Test Example 4: herbicidal effect by soil treatment (Table 19, symbol H)", "format": "in vivo, barnyard grass (Echinochloa crus-galli)", "settings": "amount of applied herbicide 320 g/ha", "procedure,_shortened": "as §1"}, "[15]": {"test_system": "wild oat", "assay": "Test Example 4: herbicidal effect by soil treatment (Table 19, symbol I)", "format": "in vivo, wild oat (Avena fatua)", "settings": "amount of applied herbicide 320 g/ha", "procedure,_shortened": "as §1"}, "[16]": {"test_system": "Chinese sprangletop", "assay": "Test Example 3: herbicidal effect by foliage application, Wagner pot (Table 18, symbol D)", "format": "in vivo, chinese sprangletop (Leptochloa chinensis)", "settings": "320 g/ha", "procedure,_shortened": "as §2"}, "[17]": {"test_system": "Italian ryegrass", "assay": "Test Example 5: herbicidal effect by foliage application, plastic box (Table 20, symbol K)", "format": "in vivo, Italian ryegrass (Lolium multiflorum)", "settings": "amount of applied herbicide 320 g/ha; foliage application after 14-day growth; evaluated three weeks after application", "procedure,_shortened": "as §3"}, "[18]": {"test_system": "barnyard grass", "assay": "Test Example 5: herbicidal effect by foliage application, plastic box (Table 20, symbol H)", "format": "in vivo, barnyard grass (Echinochloa crus-galli)", "settings": "amount of applied herbicide 320 g/ha; foliage application after 14-day growth; evaluated three weeks after application", "procedure,_shortened": "as §3"}, "[19]": {"test_system": "windgrass", "assay": "Test Example 5: herbicidal effect by foliage application, plastic box (Table 20, symbol L)", "format": "in vivo, windgrass (Apera spica-venti)", "settings": "amount of applied herbicide 320 g/ha; foliage application after 14-day growth; evaluated three weeks after application", "procedure,_shortened": "as §3"}, "[20]": {"test_system": "velvetleaf", "assay": "Test Example 4: herbicidal effect by soil treatment (Table 19, symbol M)", "format": "in vivo, velvetleaf (Abutilon theophrasti)", "settings": "amount of applied herbicide 320 g/ha", "procedure,_shortened": "as §1"}, "[21]": {"test_system": "redroot pigweed", "assay": "Test Example 4: herbicidal effect by soil treatment (Table 19, symbol N)", "format": "in vivo, redroot pigweed (Amaranthus retroflexus)", "settings": "amount of applied herbicide 320 g/ha", "procedure,_shortened": "as §1"}, "[22]": {"test_system": "wild oat", "assay": "Test Example 5: herbicidal effect by foliage application, plastic box (Table 20, symbol I)", "format": "in vivo, wild oat (Avena fatua)", "settings": "amount of applied herbicide 320 g/ha; foliage application after 14-day growth; evaluated three weeks after application", "procedure,_shortened": "as §3"}, "[23]": {"test_system": "velvetleaf", "assay": "Test Example 5: herbicidal effect by foliage application, plastic box (Table 20, symbol M)", "format": "in vivo, velvetleaf (Abutilon theophrasti)", "settings": "amount of applied herbicide 320 g/ha; foliage application after 14-day growth; evaluated three weeks after application", "procedure,_shortened": "as §3"}, "[24]": {"test_system": "late watergrass", "assay": "Test Example 1: herbicidal activity, application before weed generation under submerged conditions (Table 16, symbol A)", "format": "in vivo, late watergrass (Echinochloa oryzicola)", "settings": "amount of applied herbicide 320 g/ha", "procedure,_shortened": "as §4"}, "[25]": {"test_system": "green foxtail", "assay": "Test Example 5: herbicidal effect by foliage application, plastic box (Table 20, symbol G)", "format": "in vivo, green foxtail (Setaria viridis)", "settings": "amount of applied herbicide 320 g/ha; foliage application after 14-day growth; evaluated three weeks after application", "procedure,_shortened": "as §3"}, "[26]": {"test_system": "blackgrass", "assay": "Test Example 4: herbicidal effect by soil treatment (Table 19, symbol J)", "format": "in vivo, blackgrass (Alopecurus myosuroides)", "settings": "amount of applied herbicide 320 g/ha", "procedure,_shortened": "as §1"}, "[27]": {"test_system": "persian speedwell", "assay": "Test Example 5: herbicidal effect by foliage application, plastic box (Table 20, symbol R)", "format": "in vivo, Persian speedwell (Veronica persica)", "settings": "amount of applied herbicide 320 g/ha; foliage application after 14-day growth; evaluated three weeks after application", "procedure,_shortened": "as §3"}, "[28]": {"test_system": "southern crabgrass", "assay": "Test Example 4: herbicidal effect by soil treatment (Table 19, symbol F)", "format": "in vivo, southern crabgrass (Digitaria ciliaris)", "settings": "amount of applied herbicide 320 g/ha", "procedure,_shortened": "as §1"}, "[29]": {"test_system": "oval-leafed pondweed", "assay": "Test Example 1: herbicidal activity, application before weed generation under submerged conditions (Table 16, symbol C)", "format": "in vivo, oval-leafed pondweed (Monochoria vaginalis)", "settings": "amount of applied herbicide 320 g/ha", "procedure,_shortened": "as §4"}, "[30]": {"test_system": "persian speedwell", "assay": "Test Example 4: herbicidal effect by soil treatment (Table 19, symbol R)", "format": "in vivo, Persian speedwell (Veronica persica)", "settings": "amount of applied herbicide 320 g/ha", "procedure,_shortened": "as §1"}}, "data": [{"smiles": "CCOc1cccc(-c2sc3c(C)cccc3c2-c2c(O)c(C)nn(C)c2=O)c1", "note": "[4-114]", "values": [{"measurement": "Herbicidal effect by soil treatment, K: Italian ryegrass", "setting": "[1]", "result": "4 (Herbicidal rate of 70% or more and less than 90%)"}, {"measurement": "herbicidal effect on barnyard grass (H)", "setting": "[2]", "result": "4 (Herbicidal rate of 70% or more and less than 90%)"}, {"measurement": "Herbicidal effect by foliage application, P: chickweed", "setting": "[3]", "result": "5 (Herbicidal rate of 90% or more (almost completely withered))"}, {"measurement": "Herbicidal effect by soil treatment, O: lambsquarters", "setting": "[4]", "result": "4 (Herbicidal rate of 70% or more and less than 90%)"}, {"measurement": "Herbicidal effect by foliage application, J: blackgrass", "setting": "[5]", "result": "1 (Herbicidal rate of 5% or more and less than 20%)"}, {"measurement": "Herbicidal effect by foliage application, F: southern crabgrass", "setting": "[6]", "result": "4 (Herbicidal rate of 70% or more and less than 90%)"}, {"measurement": "Herbicidal effect by soil treatment, P: chickweed", "setting": "[7]", "result": "3 (Herbicidal rate of 40% or more and less than 70%)"}, {"measurement": "Herbicidal effect, B: Japanese bulrush", "setting": "[8]", "result": "0 (Herbicidal rate of 5% or less (almost no effect))"}, {"measurement": "Herbicidal effect by soil treatment, G: green foxtail", "setting": "[9]", "result": "4 (Herbicidal rate of 70% or more and less than 90%)"}, {"measurement": "Herbicidal effect by foliage application, N: redroot pigweed", "setting": "[10]", "result": "4 (Herbicidal rate of 70% or more and less than 90%)"}, {"measurement": "herbicidal effect on rice flat sedge (E)", "setting": "[11]", "result": "4 (Herbicidal rate of 70% or more and less than 90%)"}, {"measurement": "Herbicidal effect by soil treatment, L: windgrass", "setting": "[12]", "result": "0 (Herbicidal rate of 5% or less (almost no effect))"}, {"measurement": "Herbicidal effect by foliage application, O: lambsquarters", "setting": "[13]", "result": "3 (Herbicidal rate of 40% or more and less than 70%)"}, {"measurement": "Herbicidal effect by soil treatment, H: barnyard grass", "setting": "[14]", "result": "1 (Herbicidal rate of 5% or more and less than 20%)"}, {"measurement": "Herbicidal effect by soil treatment, I: wild oat", "setting": "[15]", "result": "0 (Herbicidal rate of 5% or less (almost no effect))"}, {"measurement": "herbicidal effect on Chinese sprangletop (D)", "setting": "[16]", "result": "3 (Herbicidal rate of 40% or more and less than 70%)"}, {"measurement": "Herbicidal effect by foliage application, K: Italian ryegrass", "setting": "[17]", "result": "5 (Herbicidal rate of 90% or more (almost completely withered))"}, {"measurement": "Herbicidal effect by foliage application, H: barnyard grass", "setting": "[18]", "result": "0 (Herbicidal rate of 5% or less (almost no effect))"}, {"measurement": "Herbicidal effect by foliage application, L: windgrass", "setting": "[19]", "result": "1 (Herbicidal rate of 5% or more and less than 20%)"}, {"measurement": "Herbicidal effect by soil treatment, M: velvetleaf", "setting": "[20]", "result": "0 (Herbicidal rate of 5% or less (almost no effect))"}, {"measurement": "Herbicidal effect by soil treatment, N: redroot pigweed", "setting": "[21]", "result": "3 (Herbicidal rate of 40% or more and less than 70%)"}, {"measurement": "Herbicidal effect by foliage application, I: wild oat", "setting": "[22]", "result": "0 (Herbicidal rate of 5% or less (almost no effect))"}, {"measurement": "Herbicidal effect by foliage application, M: velvetleaf", "setting": "[23]", "result": "1 (Herbicidal rate of 5% or more and less than 20%)"}, {"measurement": "Herbicidal effect, A: late watergrass", "setting": "[24]", "result": "3 (Herbicidal rate of 40% or more and less than 70%)"}, {"measurement": "Herbicidal effect by foliage application, G: green foxtail", "setting": "[25]", "result": "4 (Herbicidal rate of 70% or more and less than 90%)"}, {"measurement": "Herbicidal effect by soil treatment, J: blackgrass", "setting": "[26]", "result": "0 (Herbicidal rate of 5% or less (almost no effect))"}, {"measurement": "Herbicidal effect by foliage application, R: persian speedwell", "setting": "[27]", "result": "5 (Herbicidal rate of 90% or more (almost completely withered))"}, {"measurement": "Herbicidal effect by soil treatment, F: southern crabgrass", "setting": "[28]", "result": "4 (Herbicidal rate of 70% or more and less than 90%)"}, {"measurement": "Herbicidal effect, C: oval-leafed pondweed", "setting": "[29]", "result": "0 (Herbicidal rate of 5% or less (almost no effect))"}, {"measurement": "Herbicidal effect by soil treatment, R: persian speedwell", "setting": "[30]", "result": "4 (Herbicidal rate of 70% or more and less than 90%)"}]}]}
